In patent US12247004B2, “2-amino-N-(amino-oxo-aryl-lambda6-sulfanylidene)acetamide compounds and their therapeutic use” (Oxford Drug Design Limited, priority 2019, dated 2025):
Converted amounts (≈) assume the structure as drawn. Structures can show the parent of a compound that is named as a salt. Where two headings read alike, the source gives them in different places.

Tests used:
[1] = target: Leucyl-tRNA synthetase (LeuRS) (Escherichia coli (strain K12), UniProt P07813); assay: Leucyl-tRNA synthetase enzyme inhibition (AMP-Glo; single point % inhibition at 100 μM and IC50); type: biochemical
Leucyl-tRNA synthetase (LeuRS), sequence (P07813 whole entry, looked up): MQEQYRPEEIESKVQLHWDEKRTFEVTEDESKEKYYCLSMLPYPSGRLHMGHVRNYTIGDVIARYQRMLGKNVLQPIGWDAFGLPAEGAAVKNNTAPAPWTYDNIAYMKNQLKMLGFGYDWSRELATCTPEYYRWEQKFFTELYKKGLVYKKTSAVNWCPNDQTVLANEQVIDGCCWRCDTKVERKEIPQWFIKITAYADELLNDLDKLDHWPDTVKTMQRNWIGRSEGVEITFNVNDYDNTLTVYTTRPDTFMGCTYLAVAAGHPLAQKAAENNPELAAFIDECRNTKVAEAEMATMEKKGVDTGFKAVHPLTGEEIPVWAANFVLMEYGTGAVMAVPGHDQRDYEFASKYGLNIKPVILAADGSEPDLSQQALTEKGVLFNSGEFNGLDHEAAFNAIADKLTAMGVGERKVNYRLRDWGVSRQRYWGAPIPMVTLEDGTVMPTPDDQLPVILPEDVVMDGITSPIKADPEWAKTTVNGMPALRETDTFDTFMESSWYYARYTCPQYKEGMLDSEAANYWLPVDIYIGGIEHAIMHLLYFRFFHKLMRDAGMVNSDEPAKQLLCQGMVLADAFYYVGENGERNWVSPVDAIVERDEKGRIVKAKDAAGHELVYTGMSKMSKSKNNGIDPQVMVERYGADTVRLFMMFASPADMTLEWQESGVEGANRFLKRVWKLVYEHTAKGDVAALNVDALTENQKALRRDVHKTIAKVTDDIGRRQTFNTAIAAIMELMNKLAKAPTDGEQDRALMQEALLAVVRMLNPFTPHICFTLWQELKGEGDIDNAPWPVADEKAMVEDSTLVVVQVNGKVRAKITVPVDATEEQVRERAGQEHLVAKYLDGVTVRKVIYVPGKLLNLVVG
From the text: Study 1—Enzyme Inhibition
The aminoacylation reaction catalyzed by aminoacyl-tRNA synthetases (aaRS) takes place in two steps. In the first step, aaRS activates its cognate amino acid with ATP; and in the second step the activated amino acid is loaded to its corresponding tRNA. This reaction can be summarized as follows: aaRS+aa+ATP=aaRS-aa-AMP+PPi aaRS-aa-AMP+tRNA=aa-tRNA+AMP+aaRS
wherein: aaRS, aminoacyl-tRNA synthetase; aa, amino acid; aaRS-aa-AMP, enzyme-bound to aminoacyl-adenylate; AMP, adenosine monophosphate; aa-tRNA, aminoacyl-tRNA, PPi, inorganic pyrophosphate.
a. Single Point Percentage Inhibition
The activity of the pathogenic aaRSs was monitored by measuring AMP production using the commercial kit AMP-Glo (Promega, Madison, USA).
Ligand stock solutions were prepared in 100% DMSO at 10 mM concentration. An assay buffer consisting of 100 mM Tris HCl pH 7.6, 40 mM MgCl, 20 mM KCl and 150 mM NaCl was prepared in dH2O.
Using the same enzymatic assay in a 384-well plate format, ten point concentration response curves were generated for each compound using a top concentration of 10 μM. The known inhibitor LeuAMS was used as a positive control for the LeuRS assay. 100% DMSO was used as a negative control. The IC50 was calculated based on non-linear regression analysis.

[2] = tested on: bacteria (ATCC reference strains); assay: Antibacterial activity, MIC by broth micro-dilution (CLSI)
[3] = Acinetobacter baumannii, read-out: Antibacterial Activity (MIC), E = A. baumannii B1931
[4] = Enterobacter cloacae, read-out: Antibacterial Activity (MIC), B = Enterobacter cloacae B1966
[5] = Escherichia coli, ATCC25922, read-out: Antibacterial Activity (MIC), A = E. coli ATCC 25922
[6] = Escherichia coli, BAA2469, read-out: Antibacterial Activity (MIC), G = E. coli BAA-2469
[7] = Klebsiella pneumoniae, ATCC700603, read-out: Antibacterial Activity (MIC), C = K. pneumoniae ATCC 700603
[8] = Pseudomonas aeruginosa, ATCC27853, read-out: Antibacterial Activity (MIC), D = P. aeruginosa ATCC 27853
[9] = E. coli LeuRS, read-out: Enzyme Inhibition - IC50, E. coli LeuRS

## CC(C)C[C@H](N)C(=O)N=S(N)(=O)c1nc(Cl)cs1 (mixture of isomers) [ANASIA-045]
[1]
  IC50: 5520 nM

## CC(C)C[C@H](N)C(=O)N=[S@](N)(=O)c1cccs1.Cl (single isomer, unassigned) [ANASIA-007-1]
[2]; [3]
  MIC: 8 µg/mL
[2]; [4]
  MIC: 8 µg/mL
[2]; [5]
  MIC: 1 µg/mL
[2]; [6]
  MIC: 5.04 µg/mL
[2]; Haemophilus influenzae, ATCC49247, read-out: Antibacterial Activity (MIC), F = H. influenzae ATCC 49247
  MIC: 2 µg/mL
[2]; [7]
  MIC: 8 µg/mL
[2]; [8]
  MIC: 16 µg/mL

## Cc1csc([S@@](N)(=O)=NC[C@@H](N)CC(C)C)n1 [ANASIA-004-1]
[2]; [3]
  MIC: 32 µg/mL (≈ 116 µM)
[2]; [4]
  MIC: > 64 µg/mL
[2]; [5]
  MIC: 4 µg/mL (≈ 14.5 µM)
[2]; [6]
  MIC: 64 µg/mL (≈ 232 µM)
[2]; [7]
  MIC: > 64 µg/mL
[2]; [8]
  MIC: 64 µg/mL (≈ 232 µM)

## CN[S@@](=O)(=NC(=O)[C@@H](N)CC(C)C)c1ccccc1 [ANASIA-010-1, (S)-2-amino-4-methyl-N—((S)-(methylamino)(oxo)(phenyl)-λ6-sulfanylidene)pentanamide]
[1]
  IC50: 9150 nM

## CC(C)C[C@H](N)C(=O)N=[S@@](N)(=O)c1cccc(Br)c1 [ANASIA-044-2]
[1]; [9]
  IC50: 2160 nM

## CC(C)C[C@H](N)C(=O)N=[S@](N)(=O)c1nc(Cl)cs1.Cl [ANASIA-045-1]
[2]; [3]
  MIC: 64 µg/mL
[2]; [4]
  MIC: > 64 µg/mL
[2]; [5]
  MIC: 4 µg/mL
[2]; [6]
  MIC: 45.3 µg/mL
[2]; [7]
  MIC: > 64 µg/mL
[2]; [8]
  MIC: > 64 µg/mL

## CC(C)C[C@H](N)C(=O)N=S(N)(=O)c1ccc2c(c1)CCO2 (stereo partly drawn) [ANASIA-048]
[1]; [9]
  IC50: 6530 nM

## CC(C)C[C@H](N)C(=O)N=[S@@](N)(=O)c1cccc(C(C)(C)C)c1 [ANASIA-049-2]
[1]; [9]
  IC50: 2630 nM

## N[C@@H](CC1CC1)C(=O)N=[S@](N)(=O)c1ccccc1 [ANASIA-050-1]
[1]
  IC50: 4330 nM

## CC(C)C[C@H](N)C(=O)N=S(N)(=O)c1ccncc1 (stereo partly drawn) [ANASIA-059-1, (2S)-2-amino-N-(amino(oxo)(pyridin-4-yl)-λ^6-sulfanylidene)-4-methylpentanamide]
[1]; read-out: Enzyme inhibition, E. coli LeuRS, % at 10 μM
  inhibition at 10 µM: 46%

## CC(C)C[C@H](N)C(=O)N=[S@@](N)(=O)c1cc(F)cs1 [ANASIA-062-2]
[1]; [9]
  IC50: 715 nM

## CC(C)C[C@H](N)C(=O)N=S(N)(=O)c1cc(C#N)ccc1F (stereo partly drawn) [ANASIA-065]
[1]; [9]
  IC50: 670 nM

## CC(C)C[C@H](N)C(=O)N=[S@](N)(=O)c1cc(-c2ccccc2)cs1 [ANASIA-067-1]
[1]
  IC50: 1920 nM

## CC(C)C[C@H](N)C(=O)N=S(N)(=O)c1ccn(C)n1 (stereo partly drawn) [ANASIA-073]
[1]
  IC50: 238 nM

## CC(C)C[C@H](N)C(=O)N=[S@@](N)(=O)c1ccccn1 [ANASIA-075-2]
[1]; [9]
  IC50: 2540 nM

## CC(C)C[C@H](N)C(=O)N=S(N)(=O)c1sc(Cl)nc1Cl (stereo partly drawn) [ANASIA-076]
[1]; [9]
  IC50: 2260 nM

## CC(C)C[C@H](N)C(=O)N=[S@@](N)(=O)c1scc(Cl)c1Cl [ANASIA-081-2]
[1]; [9]
  IC50: 488 nM

## CC(C)C[C@H](N)C(=O)N=S(N)(=O)c1cc2sccc2s1 (stereo partly drawn) [ANASIA-082]
[1]; [9]
  IC50: 449 nM

## CC(C)C[C@H](N)C(=O)N=[S@@](N)(=O)c1csc2ccccc12 [ANASIA-083-2]
[1]; [9]
  IC50: 2300 nM

## C=CCc1cccc(S(N)(=O)=NC(=O)[C@@H](N)CC(C)C)c1 (stereo partly drawn) [ANASIA-085, (2S)—N-((3-allylphenyl)(amino)(oxo)-λ6-sulfanylidene)-2-amino-4-methylpentanamide hydrochloride]
[1]; [9]
  IC50: 594 nM

## Cc1ccccc1[S@@](N)(=O)=NC(=O)[C@@H](N)CC(C)C [ANASIA-086-1]
[1]
  IC50: 3330 nM

## CC(C)C[C@H](N)C(=O)N=[S@](N)(=O)c1ccccc1F [ANASIA-087-2]
[1]; [9]
  IC50: 4920 nM

## CC(C)C[C@H](N)C(=O)N=[S@@](N)(=O)c1cccc(OC(F)F)c1 [ANASIA-088-2]
[1]; [9]
  IC50: 1560 nM

## CC(C)C[C@H](N)C(=O)N=[S@@](N)(=O)c1cccc(C(F)(F)F)c1 [ANASIA-089-2]
[1]
  IC50: 2390 nM

## CC(C)C[C@H](N)C(=O)N=S(N)(=O)c1cccc(OC(F)(F)F)c1 (stereo partly drawn) [ANASIA-090]
[1]; [9]
  IC50: 199 nM

## Cc1sccc1[S@](N)(=O)=NC(=O)[C@@H](N)CC(C)C [ANASIA-091-2]
[1]; [9]
  IC50: 8150 nM
